Data as given in patent publication US9090600B2, “Fungicidal 4-substituted-3-{phenyl[(heterocyclylmethoxy)imino]methyl}-1,2,4-oxadizol-5(4H)-one derivatives” (BAYER INTELLECTUAL PROPERTY GMBH, priority 2011, dated 2015).
Marks after values point to notes of the source that are not given here.

How the values were obtained:
[1] = pH 2.7
Phytophthora infestans = format: in vivo; conditions: tomato plants, spray, 500 ppm, grading 5 days after contamination

SMILES | LogP [1] | Eff. % (Phytophthora infestans) [%]
CC(COC(=O)Nc1cccc(CO/N=C(/c2ccccc2)c2noc(=O)n2C)n1)c1ccccc1 (stereo not shown) [Example 145] | 4.46 [a] | 83
Cn1c(/C(=N\OCc2cccc(NC(=O)CC34CC5CC(CC(C5)C3)C4)n2)c2ccccc2)noc1=O [Example 146] | 5.08 [a] | 93
Cn1c(/C(=N\OCc2cccc(NC(=O)C3CCCCC3)n2)c2ccccc2)noc1=O [Example 147] | 3.92 [a] | 100
CC(C)=CCC(=O)Nc1cccc(CO/N=C(/c2ccccc2)c2noc(=O)n2C)n1 [Example 153] | 3.59 [a] | 100
CC(Oc1cccc(Br)c1)C(=O)Nc1nc(CO/N=C(/c2ccccc2)c2noc(=O)n2C)cs1 (stereo not shown) [Example 155] | 4.17 [a] | 92
CCCCCOC(=O)Nc1cccc(CO/N=C(/c2ccc(F)cc2)c2noc(=O)n2C)n1 [Example 161] | 4.51 [a] | 92
Cn1c(/C(=N\OCc2cccc(NC(=O)C3(c4ccccc4)CC3)n2)c2ccccc2)noc1=O [Example 165] | 4.43 [a] | 70
Cc1ccoc1C(=O)Nc1cccc(CO/N=C(/c2ccccc2)c2noc(=O)n2C)n1 [Example 170] | 3.71 [a] | 100
COc1ccccc1CCOC(=O)Nc1cccc(CO/N=C(/c2ccccc2)c2noc(=O)n2C)n1 [Example 175] | 4.31 [a] | 93
CCCCC(=O)Nc1cccc(CO/N=C(/c2ccccc2)c2noc(=O)n2CC)n1 [Example 176] | 3.76 [a] | 100
CC(C)C(=O)Nc1cccc(CO/N=C(/c2ccccc2)c2noc(=O)n2C)n1 [Example 177] | 3.11 [a] | 100
Cn1c(/C(=N\OCc2cccc(NC(=O)c3ccccc3Cl)n2)c2ccccc2)noc1=O [Example 178] | 3.64 [a] | 99
CC(C)CCOC(=O)Nc1cccc(CO/N=C(/c2ccccc2)c2noc(=O)n2C)n1 [Example 182] | 4.39 [a] | 100
COc1ccccc1CCC(=O)Nc1cccc(CO/N=C(/c2ccccc2)c2noc(=O)n2C)n1 [Example 184] | 3.87 [a] | 99
Cn1c(/C(=N\OCc2cccc(NC(=O)OCCc3ccccc3F)n2)c2ccccc2)noc1=O [Example 186] | 4.21 [a] | 83
Cn1c(/C(=N\OCc2cccc(NC(=O)c3ccc(Br)cc3)n2)c2ccccc2)noc1=O [Example 187] | 4.14 [a] | 80
CSCCC(=O)Nc1cccc(CO/N=C(/c2ccccc2)c2noc(=O)n2C)n1 [Example 188] | 3.09 [a] | 99
CCC(CC)COC(=O)Nc1cccc(CO/N=C(/c2ccccc2)c2noc(=O)n2C)n1 [Example 192] | 4.78 [a] | 100
CCCCC(C)OC(=O)Nc1cccc(CO/N=C(/c2ccccc2)c2noc(=O)n2C)n1 (stereo not shown) [Example 200] | 4.78 [a] | 98
CCn1c(/C(=N\OCc2cccc(NC(=O)OCc3ccccc3)n2)c2ccccc2)noc1=O [Example 201] | 4.24 [a] | 100
Cn1c(/C(=N\OCc2cccc(NC(=O)c3cc(F)cc(F)c3)n2)c2ccccc2)noc1=O [Example 202] | 3.92 [a] | 98

SMILES | LogP [1] | Eff. % (Phytophthora infestans) [%]
Cc1cccc(CCOC(=O)Nc2cccc(CO/N=C(/c3ccccc3)c3noc(=O)n3C)n2)c1 [Example 210] | 4.53 [a] | 75
COC(C(=O)Nc1cccc(CO/N=C(/c2ccccc2)c2noc(=O)n2C)n1)c1ccccc1 (stereo not shown) [Example 218] | 3.85 [a] | 80
COc1ccccc1OC(C)C(=O)Nc1nc(CO/N=C(/c2ccccc2)c2noc(=O)n2C)cs1 (stereo not shown) [Example 219] | 3.89 [a] | 85
CCC(C)(C)C(=O)Nc1cccc(CO/N=C(/c2ccccc2)c2noc(=O)n2C)n1 [Example 221] | 3.8 [a] | 100
CCCCCOC(=O)Nc1cccc(CO/N=C(/c2cccc(C)c2)c2noc(=O)n2C)n1 [Example 224] | 4.78 [a] | 93
CC(C)COC(=O)Nc1cccc(CO/N=C(/c2ccccc2)c2noc(=O)n2C)n1 [Example 225] | 4.01 [a] | 99
Cc1ccc(OCC(=O)Nc2nc(CO/N=C(/c3ccccc3)c3noc(=O)n3C)cs2)cc1 [Example 229] | 3.8 [a] | 100
CC(Oc1ccccc1)C(=O)Nc1cccc(CO/N=C(/c2ccccc2)c2noc(=O)n2C)n1 (stereo not shown) [Example 232] | 3.96 [a] | 100
CC(C)=CCCC(C)CC(=O)Nc1cccc(CO/N=C(/c2ccccc2)c2noc(=O)n2C)n1 (stereo not shown) [Example 235] | 4.88 [a] | 100
CC(CC1CCCCC1)Nc1cccc(CO/N=C(/c2ccccc2)c2noc(=O)n2C)n1 (stereo not shown) [Example 236] | 5.14 [a] | 100
Cn1c(/C(=N\OCc2cccc(NC(=O)CC(F)(F)F)n2)c2ccccc2)noc1=O [Example 237] | 3.19 [a] | 97
Cn1c(/C(=N\OCc2csc(NC(=O)OCc3ccccc3)n2)c2ccccc2)noc1=O [Example 239] | 3.73 [a] | 84
Cn1c(/C(=N\OCc2cccc(NC(=O)c3ccccc3Br)n2)c2ccccc2)noc1=O [Example 243] | 3.67 [a] | 99
Cn1c(C(=NOCc2cccc(NC(=O)OC(C)(C)C)n2)c2ccc(F)cc2)noc1=O [Example 246] | 4.06 [a] | 100
Cn1c(C(=NOCc2cccc(NC(=O)CCCC(C)(C)C)n2)c2ccccc2)noc1=O [Example 247] | 4.53 [a] | 99
Cn1c(C(=NOCc2csc(NC(=O)c3ccc(F)cc3)n2)c2ccccc2)noc1=O [Example 251] | 3.55 [a] | 98
Cn1c(C(=NOCc2csc(NC(=O)c3ccccc3)n2)c2ccccc2)noc1=O [Example 257] | 3.44 [a] | 100
Cn1c(C(=NOCc2cccc(N(C(=O)OC(C)(C)C)C(=O)OC(C)(C)C)n2)c2cccc(F)c2)noc1=O [Example 261] | 4.51 [a] | 100
Cn1c(C(=NOCc2csc(NC(=O)c3cc(F)cc(F)c3)n2)c2ccccc2)noc1=O [Example 263] | 3.8 [a] | 78
Cn1c(C(=NOCc2cccc(NC(=O)Cc3cccs3)n2)c2ccccc2)noc1=O [Example 264] | 3.42 [a] | 94
CCCC(=O)Nc1cccc(CON=C(c2ccccc2)c2noc(=O)n2C)n1 [Example 266] | 3.13 [a] | 100

SMILES | LogP [1] | Eff. % (Phytophthora infestans) [%]
Cn1c(C(=NOCc2cccc(NC(=O)CCCC3CCCCC3)n2)c2ccccc2)noc1=O [Example 267] | 5.14 [a] | 97
CCCC(=O)Nc1nc(CON=C(c2ccccc2)c2noc(=O)n2C)cs1 [Example 271] | 3.02 [a] | 80
Cc1cccc(C(=NOCc2cccc(NC(=O)OCCc3ccccc3)n2)c2noc(=O)n2C)c1 [Example 272] | 4.49 [a] | 88
CCCCCC(C)OC(=O)Nc1cccc(CO/N=C(/c2ccccc2)c2noc(=O)n2C)n1 (stereo not shown) [Example 285] | 5.19 [a] | 88
CC(C)COC(=O)Nc1nc(CO/N=C(/c2ccccc2)c2noc(=O)n2C)cs1 [Example 286] | 3.71 [a] | 97
Cn1c(/C(=N\OCc2cccc(NC(=O)OCCC#N)n2)c2ccccc2)noc1=O [Example 288] | 2.78 [a] | 97
Cn1c(/C(=N\OCc2csc(NC(=O)c3cccc(Br)c3)n2)c2ccccc2)noc1=O [Example 289] | 4.04 [a] | 98
COc1cccc(C(=NOCc2cccc(NC(=O)OCc3ccccc3)n2)c2noc(=O)n2C)c1 [Example 290] | 4.04 [a] | 75
Cn1c(/C(=N\OCc2cccc(NC(=O)OCCc3ccccc3)n2)c2cccc(F)c2)noc1=O [Example 297] | 4.26 [a] | 95
CCCCCOC(=O)Nc1cccc(CO/N=C(/c2ccccc2)c2noc(=O)n2CC)n1 [Example 300] | 4.72 [a] | 100
Cn1c(/C(=N\OCc2cccc(NC(=O)CCc3ccc(F)cc3)n2)c2ccccc2)noc1=O [Example 301] | 3.81 [a] | 100
CCCCCCCCCC(=O)Nc1cccc(CO/N=C(/c2ccccc2)c2noc(=O)n2C)n1 [Example 303] | 5.54 [a] | 98
C=CC(=O)Nc1cccc(CO/N=C(/c2ccccc2)c2noc(=O)n2C)n1 [Example 304] | 2.77 [a] | 83
Cn1c(/C(=N\OCc2cccc(NC(=O)C3(F)CC3)n2)c2ccccc2)noc1=O [Example 309] | 3.31 [a] | 100
COc1ccc(CCOC(=O)Nc2cccc(CO/N=C(/c3ccccc3)c3noc(=O)n3C)n2)cc1 [Example 310] | 4.08 [a] | 70
Cn1c(/C(=N\OCc2cccc(NC(=O)COc3ccccc3)n2)c2ccccc2)noc1=O [Example 313] | 3.73 [a] | 100
Cn1c(/C(=N\OCc2cccc(NC(=O)C3CC4C=CC3C4)n2)c2ccccc2)noc1=O (stereo not shown) [Example 323] | 3.68 [a] | 100
CCCC(C)C(=O)Nc1cccc(CO/N=C(/c2cccc(OC)c2)c2noc(=O)n2C)n1 (stereo not shown) [Example 328] | 3.87 [a] | 75
Cn1c(/C(=N\OCc2cccc(NC(=O)c3cccc(Oc4ccccc4)c3)n2)c2ccccc2)noc1=O [Example 329] | 4.61 [a] | 93
Cn1c(/C(=N\OCc2cccc(NC(=O)c3ccccc3I)n2)c2ccccc2)noc1=O [Example 331] | 3.76 [a] | 98
